Columns and labels:
[1] = tested on: A. fumigatus specific IgG antibodies in sera; assay: ELISA of peptide-coated plates with human sera, specific IgG binding; conditions: diluted 1:100
Description: (§1) Sera derived from 25 healthy persons and 30 culture proven allergic bronchopulmonary aspergillosis patients were probed with synthetic peptides of the present invention for A. fumigatus specific antibodies. NUNC ELISA plates were coated with 0-1 ug/ml of peptide in carbonate-bicarbonate buffer, 0.01 M, pH 9.6 for 2 h at 37° C. The unreacted sites were blocked with bovine serum albumin in phosphate buffered saline, 0.01 M, pH 7.4. Diluted sera (1:100) of patients or healthy controls was added to the wells and Incubated for 3 h at 37° C. Washed plates received anti-human IgG-HRP conjugate for 1.5 h at 37° C. washed plates were then assayed with o-phenylene diamine substrate and read at 492 nm.

[2] = tested on: A. fumigatus specific IgE antibodies in sera; assay: ELISA of peptide-coated plates with human sera, specific IgE binding
Description: as §1, with “Washed plates received anti-human IgG-HRP conjugate for 1.5 h at 37° C. washed plates were then assayed with o-phenylene diamine substrate and read at 492 nm.” left out

[3] = tested on: mixture of A. fumigatus allergens/antigens and purified 18 kD allergen/antigen; assay: Intraperitoneal immunisation of mice with peptide, serum IgG ELISA; format: in vivo, BALB/c mice; conditions: Immunised mice; 300 ug peptide i.p. with Freund's incomplete adjuvant; serum 30 days after immunization
Description: Each synthetic peptide (300 ug/150 ul saline) was emulsified with an equal volume of Freund's incomplete adjuvant and used for intraperitoneal immunisation of 3 BALB/c mice. IgG antibodies in the serum collected from these mice 30 days after immunization bound with mixture of A. fumigatus allergens/antigens and purified 18 kD allergen/antigen in ELISA.

[4] = tested on: Peripheral blood lymphocytes (PBL); assay: Cytokine analysis of PBMC supernatants incubated with peptides; format: cell-based, human; conditions: PBMC supernatant, 6 days culture with peptide
Description: Peripheral blood lymphocytes (PBL) from healthy donors and aspergillosis patients were fractionated and 2×10^6 cells/well were cultured in presence or absence of synthetic peptides for 6 days in RPMI 1640 medium with 10% autologous serum. The supernatant medium was collected for cytokine analysis and 0.5 mg/ml solution of MTT was added to each well for 30 min. before harvesting cultures with acidified isopropanol. Absorbance was measured at 590 nm.

[5] = tested on: sensitised mast cells of ABPA patients; assay: Histamine release from heparinised whole blood incubated with peptides; format: cell-based, human; conditions: 30 min at 37° C.
Description: Whole blood (heparinised) was incubated with the peptides for 30 min at 37° C. in polystyrene plates followed by centrifugation and collection of supernatants. The supernatants were acylated and were assayed for acylated histamine by histamine assay kit (Immunotech International).

INQQLNPK (listed as Aspergillus fumigatus) [pep 3, 8 aminoacids peptide, aa 6-14 (also printed aa 6-13) of the 18 kD allergen/antigen]
Absorbance at 490 nm, Specific IgG ([1]; Normal sera): 0.011
Absorbance at 490 nm, Specific IgG ([1]; Patient sera (ABPA)): 0.674
Absorbance at 490 nm, Specific IgE ([2]; Normal sera): 0.042
Absorbance at 490 nm, Specific IgE ([2]; Patient sera (ABPA)): 0.256
Absorbance at 490 nm, specific IgG antibodies in mice [3]: 0.434
IL-2 [4]: 80 pg/mL
IL-4 [4]: 92 pg/mL
IL-6 [4]: 620 pg/mL
IL-10 [4]: 220 pg/mL
gamma-IFN [4]: 168 pg/mL
Histamine released ([5]; Normal whole blood): 65 nM
Histamine released ([5]; Patient (ABPA) whole blood): 369 nM

INQQLNPKTNKWEDK (listed as Aspergillus fumigatus) [pep 4, 15 aminoacids peptide, aa 6-20 of the 18 kD allergen/antigen]
Absorbance at 490 nm, Specific IgG ([1]; Normal sera): 0.006
Absorbance at 490 nm, Specific IgG ([1]; Patient sera (ABPA)): 0.845
Absorbance at 490 nm, Specific IgE ([2]; Normal sera): 0.028
Absorbance at 490 nm, Specific IgE ([2]; Patient sera (ABPA)): 0.235
Absorbance at 490 nm, specific IgG antibodies in mice [3]: 0.526
IL-2 [4]: 400 pg/mL
IL-4 [4]: 28 pg/mL
IL-6 [4]: 120 pg/mL
IL-10 [4]: 40 pg/mL
gamma-IFN [4]: 520 pg/mL
Histamine released ([5]; Normal whole blood): 58 nM
Histamine released ([5]; Patient (ABPA) whole blood): 392 nM

LNPKTNKWEDK (listed as Aspergillus fumigatus) [pep 2, 11 aminoacids peptide, aa 10-20 of the 18 kD allergen/antigen]
Absorbance at 490 nm, Specific IgG ([1]; Normal sera): 0.09
Absorbance at 490 nm, Specific IgG ([1]; Patient sera (ABPA)): 0.852
Absorbance at 490 nm, Specific IgE ([2]; Normal sera): 0.039
Absorbance at 490 nm, Specific IgE ([2]; Patient sera (ABPA)): 0.473
Absorbance at 490 nm, specific IgG antibodies in mice [3]: 0.636
IL-2 [4]: 280 pg/mL
IL-4 [4]: 48 pg/mL
IL-6 [4]: 140 pg/mL
IL-10 [4]: 80 pg/mL
gamma-IFN [4]: 320 pg/mL
Histamine released ([5]; Normal whole blood): 82 nM
Histamine released ([5]; Patient (ABPA) whole blood): 402 nM

LNPKTNKWEDKRY [pep 6]
Absorbance at 490 nm, Specific IgG ([1]; Normal sera): 0.004
Absorbance at 490 nm, Specific IgG ([1]; Patient sera (ABPA)): 0.828
Absorbance at 490 nm, Specific IgE ([2]; Normal sera): 0.033
Absorbance at 490 nm, Specific IgE ([2]; Patient sera (ABPA)): 0.145
Absorbance at 490 nm, specific IgG antibodies in mice [3]: 0.547
IL-2 [4]: 120 pg/mL
IL-4 [4]: 62 pg/mL
IL-6 [4]: 760 pg/mL
IL-10 [4]: 340 pg/mL
gamma-IFN [4]: 240 pg/mL
Histamine released ([5]; Normal whole blood): 62 nM
Histamine released ([5]; Patient (ABPA) whole blood): 278 nM

TNKWEDK [pep 5]
Absorbance at 490 nm, Specific IgG ([1]; Normal sera): 0.012
Absorbance at 490 nm, Specific IgG ([1]; Patient sera (ABPA)): 0.850
Absorbance at 490 nm, Specific IgE ([2]; Normal sera): 0.032
Absorbance at 490 nm, Specific IgE ([2]; Patient sera (ABPA)): 0.208
Absorbance at 490 nm, specific IgG antibodies in mice [3]: 0.498
IL-2 [4]: 260 pg/mL
IL-4 [4]: 24 pg/mL
IL-6 [4]: 180 pg/mL
IL-10 [4]: 36 pg/mL
gamma-IFN [4]: 660 pg/mL
Histamine released ([5]; Normal whole blood): 43 nM
Histamine released ([5]; Patient (ABPA) whole blood): 356 nM
